Reference: the supplement of paper PMC4862054

Key:
Experiment in all cases: normalised response (% of control), CellTiter-Glo; higher = more viable cells (100 = DMSO, 0 = benzethonium chloride kill control)
Conditions in all cases: incubation time: 72 h
BT-474 = tested on: BT-474
Procedure, shortened: (§1)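 Normalised signals at single concentrations make up the values. They come from breast cancer cell lines seeded (20 µl suspension) into 384-well plates with compound at 5 concentrations in 10-fold steps over a compound-specific 10,000-fold range, incubated 72 h, and read for CellTox Green fluorescence then CellTiter-Glo luminescence. Each plate was normalised to 0.1 % DMSO (100) and a positive kill control (0).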

DU-4475 = tested on: DU-4475
Procedure, shortened: as §1

HCC1937 = tested on: HCC1937
Procedure, shortened: as §1

HDQ-P1 = tested on: HDQ-P1
Procedure, shortened: as §1

MCF-10A = tested on: MCF-10A
Procedure, shortened: as §1

MDA-MB-231 = tested on: MDA-MB-231
Procedure, shortened: as §1

MFM-223 = tested on: MFM-223
Procedure, shortened: as §1

Row | Structure (SMILES) | normalised response (BT-474) [%] | normalised response (DU-4475) [%] | normalised response (HCC1937) [%] | normalised response (HDQ-P1) [%] | normalised response (MCF-10A) [%] | normalised response (MDA-MB-231) [%] | normalised response (MFM-223) [%]
1 | Cn1cnc2c(F)c(Nc3ccc(Br)cc3F)c(C(=O)NOCCO)cc21 [MEK-162] (100 nM) | 88.8 | 42.6 | 95 | 71.4 | 49 | 92 | 102
2 | CCOc1cc2ncc(C#N)c(Nc3ccc(OCc4ccccn4)c(Cl)c3)c2cc1NC(=O)/C=C/CN(C)C [Neratinib] (100 nM) | 102 | 101 | 88 | 69.8 | 43.1 | 102 | 101
3 | COc1ccc(C2=N[C@@H](c3ccc(Cl)cc3)[C@@H](c3ccc(Cl)cc3)N2C(=O)N2CCNC(=O)C2)c(OC(C)C)c1 [Nutlin-3] (1000 nM) | 98.9 | 96.5 | 102 | 105 | 102 | 106 | 104
4 | COC1=CC(c2cc3ccccc3[nH]2)=N/C1=C\c1[nH]c(C)cc1C [Obatoclax] (1000 nM) | 65.4 | 89.7 | 63.4 | 97 | 92.8 | 64 | 93.7
5 | CC(=O)O[C@H]1C(=O)[C@@]2(C)[C@H]([C@H](OC(=O)c3ccccc3)[C@]3(O)C[C@H](OC(=O)[C@H](O)[C@@H](NC(=O)c4ccccc4)c4ccccc4)C(C)=C1C3(C)C)[C@]1(OC(C)=O)CO[C@@H]1C[C@@H]2O [Paclitaxel] (100 nM) | 36.7 | 51.5 | 66.2 | 60.4 | 33.5 | 33.2 | 38.2
6 | CC(C)(C)c1cc(NC(=O)Nc2ccc(-c3cn4c(n3)sc3cc(OCCN5CCOCC5)ccc34)cc2)no1 [Quizartinib] (100 nM) | 108 | 104 | 102 | 100 | 105 | 108 | 109
7 | O=C(c1ccc(OCCN2CCCCC2)cc1)c1c(-c2ccc(O)cc2)sc2cc(O)ccc12 [Raloxifene] (1000 nM) | 102 | 103 | 100 | 100 | 108 | 107 | 95.6
8 | Cn1c(=O)c(F)c(Nc2ccc(I)cc2F)c2c(=O)n(C[C@@H](O)CO)cnc21 [TAK-733] (100 nM) | 67.2 | 1.33 | 82.7 | 66.3 | 38.8 | 78 | 98.8
9 | CCS(=O)(=O)c1cccc(-c2cc(C(=O)NC3CCN(C)CC3)c(C)c3[nH]c4ncc(C)cc4c23)c1 [TAK-901] (100 nM) | 82 | 98.5 | 102 | 86.2 | 80.2 | 77.6 | 79.5
